Test results reported in patent US5906922A, “Delivery of nucleic acids” (Commonwealth Scientific and Industrial Research Organisation, priority 1994, dated 1999).
Where a SMILES comes first, the peptide text is derived from it. The star is where a group is joined. NHC(CH2O-Palmitoyl)3 = CCCCCCCCCCCCCCCC(=O)OCC(COC(=O)CCCCCCCCCCCCCCC)(COC(=O)CCCCCCCCCCCCCCC)N*; X5 = CCCCCCCCCCCCCCCC(=O)OCC(CO)(COC(=O)CCCCCCCCCCCCCCC)N*; X4 = CCCCCCCCCCCC(=O)OCC(CO)(COC(=O)CCCCCCCCCCC)N*; X1 = CCCCCCCCCCCCCCCC(=O)OCC(CO)(CO)N*; NHC(CH2OH)3 = OCC(CO)(CO)N*

How the values were obtained:
Cos 1 cells [1] = experiment: Transfection of pSVLCAT, CAT assay, Cos 1; format: cell-based, African Green Monkey; details: for CAT activity (mean): 25 μl lysate, 135 min 37° C.; for transfection, number of palmitates: R1-R4 experiment a, Cos 1, K2 A linker; for Transfection (CAT): Table 1, Cos 1, optimised level of agent
Protocol: To test the transfection properties of the lead compound K3ATP3 (VerafectinA3), whole uncut plasmid carrying the gene encoding CAT (chloramphenicol acetyl transferase) under the control of the SV40 late promoter, pSVLCAT (Cameron, F. H. and Jennings, P. A. (1989) PNAS 86, 9139-9143) was mixed with the test agent and put on Cos 1 cells under various conditions. After 48 hours of culture the level of secreted CAT was assayed from the culture medium.
Solution I: 1 μg Plasmid DNA in 500 μl Dulbeccos Modified Eagles Medium (DME)
Solution II: 0-20 μl VerafectinA3 (2.5 mg/ml 25% DMSO) in 500 μl DME, Vortex
Combine solution I and II, vortex briefly and incubate at room temperature for 10 min.
Add mix to washed cells in 60 mm tissue culture dishes (seeded 0.5×10^6 /dish previous day) for 6 hrs at 37° C., 5% C02. Add 2 ml DME+10% FCS for remainder of 48 hrs. Assay CAT levels in tissue culture medium (Sleigh, M. J. (1986) Anal. Biochem. 156.251-256).
a--Compare VerafectinA3 dissolved in DMSO or ethanol.
b--Compare VerafectinA3 on cells 6 hrs to overnight. VerafectinA3 at 10 mg/ml in 100% solvent was diluted to 2.5 mg/ml with water.
Transfection was carried out as for experiment 1. VerafectinA3 was left in contact with the cells for varying times.
Protocol was the same for the Verafectins as described above. Lipofectamine protocol was according to manufacturers instructions. Cos 1 cells were seeded at 5×10^5 /60 mm dish and adhered overnight in DME with 10% FCS.
Solution A: 0.5 μg pSVLCAT/60 mm dish.
Solution B: Lipofectamine 10 and 15 μl 2 mg/ml (mixed formulation 3:1 with DOPE).
OR; VerafectinA3 and VerafectinG2 20 μl 2 mM (2.8 and 2.3 mg/ml respectively) stock.
OR; VerafectinG2 was also tested with an equimolar amount of DOPE. VerafectinG2 and DOPE were mixed in DDME and vortexed for 30 seconds before use. Solutions A and B were combined before overlaying on washed cells.
The serum free incubation period in the presence of test agents and DNA was 6 hrs, then 1 ml DME+10% FCS was added. At 24 hours medium was changed to 2 ml fresh DME+10% FCS until harvest at 48 hrs.
(§1) Cell lines Cos 1 or CHO were transfected with 0.5 μg of pSVLCAT or 2 μg of pPGKlacZ plasmid using a range of concentrations of each transfection compound. The optimal concentration of compound, that is the concentration giving the highest level of CAT at 48 hours or the greatest percentage of lac z (β-galactosidase) staining cells at 24 hours was used to collate data for Table 1. As all compounds were not tested in a single experiment, absolute figures indicating transfection were not used. Rather, symbols are used to indicate the transfection efficiency relative to Lipofectamine (BRL), which was included as a control in all experiments. Table 1 thus indicates the relative efficiencies of a number of compounds in mediating the transfection of at least one cell type.
(§2) All test lipopeptide reagents were originally dissolved at 10 mM in 75% DMSO, and subsequently diluted with water to make a 2 mM stock stored at 4° C. Volumes of 2 mM stock lipopeptide ranging from 2 μl to 15 μl were diluted in 500 μl of DDME. 1 μg of plasmid pSVLCAT was separately diluted in 500 μl of DDME. Solutions were combined for 10-20 min at room temperature before adding to 500 μl of DDME in 60 mm dishes of subconfluent CHO cells (2×10^5 day-1) or Cos 1 cells (5×10^5 day-1); washed free of serum with DDME.
(§3) Cells were incubated for 6 hrs under standard conditions of 37° C. and 5% CO2 for 6 hours. 1.5 ml of DME/Hams+10% FCS (CHO) or DME+10% FCS (Cos 1) was added to the cells for overnight incubation. Fresh DME/Hams+10% FCS or DME+10% FCS was used to replace the medium for a further 24 hours prior to harvest. Cell lysates were prepared and assayed for CAT activity as described above. For Cos 1 cells, culture supernatants were assayed for CAT activity.
For transfection of pSVLCAT and subsequent assay of CAT enzyme, experiments "a" and "b" were carried out as described above.

CHO cells = experiment: Transfection of pSVLCAT, CAT assay, CHO; format: cell-based, Chinese Hamster; details: for Transfection (CAT): Table 1, CHO, optimised level of agent
Protocol: Protocol was the same for Verafectin and Transfectam (see above) with the exception that 0.5 μg of pSVLCAT DNA was used /60 mm dish.
Lipofectamine protocol was according to manufacturer's instructions. 0.5 μg pSVLCAT/60 mm dish. CHO cells seeded 1×10^5 /60 mm dish and adhered overnight in DME/Hams medium with 10% FCS.
Transfectam 5 or 10 μl 1mg/400 μl stock solution.
Lipofectamine 5 or 10 μl 2 mg/ml (mixed formulation 3:1 with DOPE). VerafectinA3 (K3ATP3) and VerafectinG2 (K3G[Glycine]TP2) each at 5, 10 and 15 μl of 2 mM (2.8 and 2.3 mg/ml respectively) stock.
The serum free incubation period in the presence of test agents and DNA was 6 hours, then 1 ml DME/Hams+10% FCS was added. At 24 hrs the medium was changed to 2 ml of fresh DME/Hams+10% FCS until harvest at 48 hrs.
as §1, §2, §3
a. Using the standard transfection procedure described above, and 1 μg plasmid pSVLCAT, these formulations were tested on CHO cells at a single concentration equivalent to 10 μl of Verafectin A2 (2 mM) per sample and compared to unformulated compound and Lipofectamine in the same cell type. CAT production was assayed 48 hours after transfection.

Cos 1 cells [2] = format: cell-based, African Green Monkey
Protocol: Relative levels of cytotoxicity were also assayed in subsequent experiments using the dye MTS, marketed as Cell titre 96 Aqueous (Promega).
(§4) The ratio of [lipid]/[DNA] at which that maximum was achieved is shown. Experiments shown were carried out in Cos 1 cells, as described above. MTS OD is a measure of relative viabilility of the cells exposed to the different agents, a higher value indicates greater cell viability. * These points were taken from a separate experiment and some slight variation between absolute numbers should be expected between experiments.
(§5) The ratio of [lipid]/[DNA] at which that maximum was achieved is shown in brackets for the two different cell types in the following order; (Cos 1) (CHO). Experiments shown were carried out in Cos 1 cells, as described above. Viability was measured with the dye alamar blue . # Denotes compounds tested in a separate experiment. * Viability in this experiment was determined with MTS. OD is a measure of relative viability of the cells exposed to the different agents, and as with alamar blue, a higher value indicates greater cell viability.

Cos 1 cells [3] = experiment: β-gal microtitre plate transfection assay, Cos 1; format: cell-based, African Green Monkey
Source text: For experiment "c", a plasmid pPGKlaczNLS encoding β-galactosidase under the control of the mouse PGK promoter (kind gift from G.Hannan) or pSVGAL which utilises the SV40 early promoter (Sleigh, M. J. and Lockett, T. J. (1985). EMBO J. 4:3831-3837),was transfected. This experiment and assay were modified from Feigner et al J. Biol Chem. 269(4) 2550-2561 1994. This protocol allows the simultaneous assessment of 72 different combinations and concentrations of DNA and test agent in a microtitre tray. […] Cytotoxicity was assessed using alamar blue, and a sample graph is shown for experiment a.
Compounds were tested for their ability to transfect either the CAT or β-gal gene carried on plasmids, and assayed as described above.
as §4
Each of these compounds was tested for transfection ability and cytotoxicity on standard cell lines using standard conditions as described above.
as §5

[4] = "x" peptide experiment b, Cos 1
[5] = "x" peptide experiment a, CHO, 25 μl lysate, 20 min assay at 37° C., optimal level

CCCCCCCCCCCCCCCC(=O)OCC(CO)(COC(=O)CCCCCCCCCCCCCCC)NC(=O)[C@H](C)NC(=O)[C@@H](N)CCCCN [K1ATP2]
CAT activity (mean) (Cos 1 cells [1]; [4]): 12670 cpm

CCCCCCCCCCCCCCCC(=O)OCC(CO)(CO)NC(=O)[C@H](C)NC(=O)[C@H](CCCCN)NC(=O)[C@@H](N)CCCCN [K2ATP1]
transfection, number of palmitates (Cos 1 cells [1]): very inefficient

CCCCCCCCCCCCCCCC(=O)OCC(CO)(COC(=O)CCCCCCCCCCCCCCC)NC(=O)[C@H](C)NC(=O)[C@H](CCCCN)NC(=O)[C@@H](N)CCCCN [K2ATP2]
CAT activity (mean) (CHO cells; [5]): 5418 cpm | transfection with second lysine relative to single K (Cos 1 cells [1]; [4]): ~5 times | CAT activity (mean) (Cos 1 cells [1]; [4]): 62,215 cpm | transfection, linkers A and L compared (Cos 1 cells [1]; "y" linker experiment b, Cos 1): very similar activities

CCCCCCCCCCCCCCCC(=O)OCC(COC(=O)CCCCCCCCCCCCCCC)(COC(=O)CCCCCCCCCCCCCCC)NC(=O)[C@H](C)NC(=O)[C@H](CCCCN)NC(=O)[C@@H](N)CCCCN [K2ATP3]
transfection, number of palmitates (Cos 1 cells [1]): high levels of transfection

CCCCCCCCCCCCCCCC(=O)OCC(CO)(COC(=O)CCCCCCCCCCCCCCC)NC(=O)[C@H](CCCCN)NC(=O)[C@H](CCCCN)NC(=O)[C@@H](N)CCCCN [K2KTP2]
transfection, dipalmitate versus tripalmitate (Cos 1 cells [1]; R1-R4 experiment d, Cos 1, lysine linker): significantly less active than the tripalmitate molecule

CCCCCCCCCCCC(=O)OCC(CO)(COC(=O)CCCCCCCCCCC)NC(=O)[C@H](C)NC(=O)[C@H](CCCCN)NC(=O)[C@H](CCCCN)NC(=O)[C@@H](N)CCCCN [K3ATL2] (H-KKKA-X4)
MTS OD490-655 (Cos 1 cells [2]): 1.554 | Viability (Cos 1) (Cos 1 cells [2]): 1.55 | ratio [lipid]/[DNA] at which maximum was achieved (Cos 1 cells [3]; Table 2, Cos 1): 0.69 | units β-gal (Cos 1 cells [3]; Table 2, Cos 1, highest reading of 72 conditions): 1.06 × 10^-5 units | ratio [lipid]/[DNA] at which maximum was achieved (Cos 1 cells [3]; Table 3, Cos 1): .69 | β-gal (Cos 1) (Cos 1 cells [3]; Table 3, Cos 1, highest reading of 72 conditions): 1.06 × 10^-5

C[C@H](NC(=O)[C@H](CCCCN)NC(=O)[C@H](CCCCN)NC(=O)[C@@H](N)CCCCN)C(=O)NC(CO)(CO)CO [K3ATP0] (H-KKKA-{NHC(CH2OH)3})
Transfection (CAT) (Cos 1 cells [1]): -

CCCCCCCCCCCCCCCC(=O)OCC(CO)(COC(=O)CCCCCCCCCCCCCCC)NC(=O)[C@H](C)NC(=O)[C@H](CCCCN)NC(=O)[C@H](CCCCN)NC(=O)[C@@H](N)CCCCN [K3ATP2, trilysine alanine tris dipalmitate]
CAT levels relative to Lipofectamine, non-liposome formulation (CHO cells; CHO, unformulated): around 5% | CAT activity (mean) (CHO cells; R1-R4 experiment e, CHO): 984 cpm | Transfection (CAT) (CHO cells): +/- | Transfection (CAT) (Cos 1 cells [1]): +/-

NCCCC[C@H](NC(=O)[C@H](CCCCN)NC(=O)[C@@H](N)CCCCN)C(=O)NCC(=O)NC(CO)(CO)CO [K3GTP0] (H-KKKG-{NHC(CH2OH)3})
Transfection (CAT) (Cos 1 cells [1]): -

CCCCCCCCCCCCCCCC(=O)OCC(CO)(CO)NC(=O)CNC(=O)[C@H](CCCCN)NC(=O)[C@H](CCCCN)NC(=O)[C@@H](N)CCCCN [K3GTP1] (H-KKKG-X1)
Transfection (CAT) (CHO cells): + | Transfection (CAT) (Cos 1 cells [1]): +

CCCCCCCCCCCCCCCC(=O)OCC(COC(=O)CCCCCCCCCCCCCCC)(COC(=O)CCCCCCCCCCCCCCC)NC(=O)CNC(=O)[C@H](CCCCN)NC(=O)[C@H](CCCCN)NC(=O)[C@@H](N)CCCCN [K3GTP3] (H-KKKG-{NHC(CH2O-Palmitoyl)3})
Transfection (CAT) (CHO cells): + | Transfection (CAT) (Cos 1 cells [1]): +/-

CCCCCCCCCCCCCCCC(=O)OCC(CO)(COC(=O)CCCCCCCCCCCCCCC)NC(=O)[C@H](C)NC(=O)[C@H](CCCCN)NC(=O)[C@H](CCCCN)NC(=O)[C@H](CCCCN)NC(=O)[C@@H](N)CCCCN [K4ATP2] (H-KKKKA-X5)
Transfection (CAT) (Cos 1 cells [1]): +

CCCCCCCCCCCCCCCC(=O)OCC(CO)(COC(=O)CCCCCCCCCCCCCCC)NC(=O)[C@H](C)NC(=O)[C@H](CCCCN)NC(=O)[C@H](CCCCN)NC(=O)[C@H](CCCCN)NC(=O)[C@H](CCCCN)NC(=O)[C@@H](N)CCCCN [K5ATP2] (H-KKKKKA-X5)
CAT activity (mean) (CHO cells; [5]): 132 cpm

CCCCCCCCCCCCCCCC(=O)OCC(COC(=O)CCCCCCCCCCCCCCC)(COC(=O)CCCCCCCCCCCCCCC)NC(=O)[C@H](C)NC(=O)[C@H](CCCCN)NC(=O)[C@H](CCCCN)NC(=O)[C@H](CCCCN)NC(=O)[C@H](CCCCN)NC(=O)[C@@H](N)CCCCN [K5ATP3] (H-KKKKKA-{NHC(CH2O-Palmitoyl)3})
CAT activity (mean) (CHO cells; [5]): 1785 cpm | mean level of CAT activity (CHO cells; "x" peptide experiment c, CHO, 2 hours incubation of 20 μl lysate): 6363
